The IC50 is the point on the concentration scale where inhibition reaches its midpoint. For orientation: Ki means the equilibrium dissociation constant of an inhibitor or competing ligand from its target. Low readings indicate higher affinity, high ones lower affinity.

The test addresses T1, Low molecular weight protein-tyrosine phosphatase A (Mycobacterium tuberculosis, UniProt P9WIA1).
T1 sequence (P9WIA1 whole entry): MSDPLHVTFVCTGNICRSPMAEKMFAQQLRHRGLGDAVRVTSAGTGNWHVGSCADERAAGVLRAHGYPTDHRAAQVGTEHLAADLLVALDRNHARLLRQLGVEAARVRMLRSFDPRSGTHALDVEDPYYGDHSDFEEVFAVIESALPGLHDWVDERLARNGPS
Briefly: Non-competitive inhibition of Mycobacterium tuberculosis PTPA using p-nitrophenyl phosphate as substrate by Lineweaver-Burk plot analysis.

Take `O=C(O)/C1=C/C#Cc2ccccc2C#CCCNC1=O`: the IC50 is 110 µM and the inhibition constant (Ki) came out at 22.5 µM.

`O=C(O)C1CCCc2ccccc2CCCCNC1=O` (racemic) registered an IC50 of 236 µM and a Ki of 101 µM.

The values above are taken from ChEMBL document CHEMBL1781876, “Design, synthesis and inhibition activity of a novel cyclic enediyne amino acid conjugates against MPtpA” (Bioorg Med Chem, 2011).
